Results: patent US20080249075A1, “C11 Modified Retrosteroids as Progesterone Receptor Modulator Compounds” (Solvay Pharmaceuticals GmbH, priority 2007, published 2008)

Tested on: T47D human breast carcinoma cells
Assay: cells
Type: cell-based
Conditions: for PS [100 nM] (% stimulation): agonistic mode, alkaline phosphatase induction (100% = 1 nM Dydrogesterone); for PS [100 nM] (% stimulation) / PI [100 nM] (% inhibition): compound 100 nM; for PI [100 nM] (% inhibition): antagonistic mode, inhibition of alkaline phosphatase induction by 1 nM Dydrogesterone; for pIC50: antagonistic potency against 1 nM Dydrogesterone; for activation at 0.1 µM / inhibition at 0.1 µM / EC50 / IC50: Homo sapiens, T47D; for activation at 0.1 µM: 48 h, read-out: PS [100 nM] (% stimulation); for inhibition at 0.1 µM: read-out: PI [100 nM] (% inhibition); for EC50: read-out: pEC50 (converted); for IC50: read-out: pIC50 (converted)
Description: The progesterone-dependent modulation of alkaline phosphatase expression was examined using T47D human breast carcinoma cells [Keydar et al., 1979]. The assay was performed as previously described by Di Lorenzo et al. (1991) with the modification of using Dydrogesterone as comparative progestin to determine the antagonistic and agonistic activity.
The cell line was purchased from CLS Cell Lines Service (Hildastrasse 21, D-69214 Eppelheim, Germany). In brief, the cells were plated in 96-well plates at 40,000 cells/well using the following growth medium: RPMI 1640 with: 10% FBS, 1 mM Sodium Pyruvat MEM, 10 mM Hepes, 0.01 mg/ml Bovine insulin, and 25 μg/ml Gentamycin. After 24 h of cultivation, the growth medium was replaced with medium containing 2% fetal bovine serum and the test compounds were added to each well to achieve the appropriate compound concentration: For determination of agonistic activity only the test compounds were added; for measurement of antagonistic activity the test compounds and additionally Dydrogesterone as standard progesterone agonist was added to a final concentration of 1 nM. After 48 h of cultivation, the medium was removed and the cells were washed with 200 μl of Dulbecco's phosphate-buffered saline without calcium and magnesium (PBS(−)). Then the cells were fixed with 3.7% formaldehyde in phosphate-buffered saline for 15 min at 22° C. After washing the cells with PBS, 100 μl of a […] (pNPP) solution (pNPP Liquid Substrate System; Sigma) was added to each well and incubated for 2 h at room temperature protected from light. The reaction was stopped with 100 μl 1N NaOH and the absorbance was measured with a spectrophotometer (Victor, Perkin Elmer) at 405 nm. The results are expressed as alkaline phosphatase induction (as 100% with 1 nM Dydrogesterone) or inhibition (against alkaline phosphatase induction by 1 nM Dydrogesterone) at a certain concentration of test compound.
% stimulation=(effect compound−basal)/(effect dydro 1 nM−basal)*100% inhibition of 1 nM Dydro=100*{1-[(effect compound−basal)/(effect dydro 1 nM−basal)]}
For each compound the % inhibition (PI) and % stimulation (PS), respectively, at a compound concentration of 100 nM was determined. For selected compounds, the corresponding values were measured for several different concentrations, and subsequently were plotted against the concentration of the test compound, and used to calculate the IC50 value (for the antagonistic potency; the IC50 value is the concentration (nM), required to reduce the maximal response by 50%) and EC50 values (for the agonistic potency; the EC50 value is the effective concentration (nM) that produced 50% of the maximum response), respectively.

Row | Structure (SMILES) | PS [100 nM] (% stimulation) (T47D cells) [%] | PI [100 nM] (% inhibition) (T47D cells) [%] | pIC50 (T47D cells) | activation at 0.1 µM [%] | inhibition at 0.1 µM [%] | pEC50 (agonistic potency, T47D cells) | EC50 [µM] | IC50 [µM]
1 | CC(=O)[C@H]1CC[C@H]2[C@@H]3C=CC4=CC(=O)CC[C@@]4(C)[C@@H]3C(OC(=O)Nc3cccc(-n4cccc4)c3)C[C@]12C (some centres unmarked) [compound 103, (3-Pyrrol-1-yl-phenyl)-carbamicacid dydrogesterone-11-yl ester] | 21.0 | 52.0 | 7.2 | – | – | – | – | –
2 | COc1ccc(NC(=O)O[C@H]2C[C@]3(C)[C@@H](C(C)=O)CC[C@H]3[C@@H]3C=CC4=CC(=O)CC[C@@]4(C)[C@@H]32)cc1 [Compound No. 11, (4-Methoxy-phenyl)-carbamic acid dydrogesterone-11β-yl ester] | – | – | – | 0 | 39 | – | – | –
3 | CC(=O)[C@H]1CC[C@H]2[C@@H]3C=CC4=CC(=O)CC[C@@]4(C)[C@@H]3C(OC(=O)Nc3cccc(OC(F)(F)F)c3)C[C@]12C (some centres unmarked) [compound 74, (3-Trifluoromethoxy-phenyl)-carbamic acid dydrogesterone-11-yl ester] | 89.0 | −23.0 | – | – | – | 6.3 | – | –
4 | COc1ccc(C(=O)O[C@H]2C[C@]3(C)[C@@H](C(C)=O)CC[C@H]3[C@@H]3C=CC4=CC(=O)CC[C@@]4(C)[C@@H]32)cc1 [Compound No. 22, 4-Methoxy-benzoic acid dydrogesterone-11β-yl ester] | – | – | – | 29 | 55 | – | 0.0126 | 0.02
5 | COc1cc(NC(=O)OC2C[C@]3(C)[C@@H](C(C)=O)CC[C@H]3[C@@H]3C=CC4=CC(=O)CC[C@@]4(C)[C@H]23)cc(-n2cnnn2)c1 (some centres unmarked) [compound 104, (3-Methoxy-5-tetrazol-1-yl-phenyl)-carbamic aciddydrogesterone-11-yl ester] | 1.0 | 45.0 | 6.9 | – | – | – | – | –
6 | CC(=O)[C@H]1CC[C@H]2[C@@H]3C=CC4=CC(=O)CC[C@@]4(C)[C@@H]3[C@@H](OC(=O)Nc3cccc(C(N)=O)c3)C[C@]12C [Compound No. 14, (3-Carbamoyl-phenyl)-carbamic acid dydrogesterone-11β-yl ester] | – | – | – | -1 | 38 | – | – | 0.0501
7 | CC(=O)Nc1cccc(NC(=O)OC2C[C@]3(C)[C@@H](C(C)=O)CC[C@H]3[C@@H]3C=CC4=CC(=O)CC[C@@]4(C)[C@H]23)c1 (some centres unmarked) [compound 95, (3-Acetylamino-phenyl)-carbamicacid dydrogesterone-11-yl ester] | 1.0 | 50.0 | 6.8 | – | – | – | – | –
8 | CCO[C@]1(C(C)=O)CC[C@H]2[C@@H]3C=CC4=CC(=O)CC[C@@]4(C)[C@@H]3[C@@H](OC(=O)Nc3cccc(OC)c3)C[C@@]21C [Compound No. 12, (3-Methoxy-phenyl)-carbamic acid 17-ethoxy-dydrogesterone-11β-yl ester] | – | – | – | 23 | 72 | – | – | 0.00631
9 | CCNC(=O)O/N=C/c1cccc(NC(=O)O[C@H]2C[C@]3(C)[C@@H](C(C)=O)CC[C@H]3[C@@H]3C=CC4=CC(=O)CC[C@@]4(C)[C@@H]32)c1 [Compound No. 33, [3-(N-Ethylcarbamoyl-oximino-formyl)-phenyl]-carbamic acid dydrogesterone-11β-yl ester] | – | – | – | 56 | -29 | – | 0.2 | –
10 | CC(=O)[C@H]1CC[C@H]2[C@@H]3C=CC4=CC(=O)CC[C@@]4(C)[C@@H]3C(OC(=O)Nc3ccc(C)c(Br)c3)C[C@]12C (some centres unmarked) [compound 76, (3-Bromo-4-methyl-phenyl)-carbamic acid dydrogesterone-11-yl ester] | 4.0 | 67.0 | 7.3 | – | – | – | – | –
11 | CC(=O)[C@H]1CC[C@H]2[C@@H]3C=CC4=CC(=O)CC[C@]4(C)[C@H]3C(OC(=O)Nc3ccc4ncccc4c3)C[C@]12C (some centres unmarked) [compound 69, Quinolin-6-yl-carbamic aciddydrogesterone-11-yl ester] | 4.0 | 41.0 | 7.2 | – | – | – | – | –
12 | CCO[C@]1(C(C)=O)CC[C@H]2[C@@H]3C=CC4=CC(=O)CC[C@@]4(C)[C@@H]3[C@@H](OC(=O)c3ccccc3)C[C@@]21C [Compound No. 23, Benzoic acid 17-ethoxy-dydrogesterone-11β-yl ester] | – | – | – | 16 | 69 | – | – | 0.0158
13 | CC(=O)[C@H]1CC[C@H]2[C@@H]3C=CC4=CC(=O)CC[C@@]4(C)[C@@H]3C(OC(=O)Nc3ccc(OC(F)F)cc3)C[C@]12C (some centres unmarked) [compound 75, (4-Difluoromethoxy-phenyl)-carbamic acid dydrogesterone-11-yl ester] | 0.0 | 59.0 | 6.9 | – | – | – | – | –
14 | COc1cccc(NC(=O)O[C@H]2C[C@]3(C)[C@@H](C(C)=O)CC[C@H]3[C@@H]3C=CC4=CC(=O)CC[C@@]4(C)[C@@H]32)c1 [Compound No. 15, (3-Methoxy-phenyl)-carbamic acid dydrogesterone-11β-yl ester] | – | – | – | -3 | 43 | – | – | 0.126
15 | CC(=O)[C@H]1CC[C@H]2[C@@H]3C=CC4=CC(=O)CC[C@@]4(C)[C@@H]3C(OC(=O)Nc3ccc4cc[nH]c4c3)C[C@]12C (some centres unmarked) [compound 88, (1H-Indol-6-yl)-carbamic aciddydrogesterone-11-yl ester] | 0.0 | 48.0 | – | – | – | – | – | –
16 | CC(=O)[C@H]1CC[C@H]2[C@@H]3C=CC4=CC(=O)CC[C@@]4(C)[C@@H]3C(OC(=O)Nc3ccc4c(c3)OCCO4)C[C@]12C (some centres unmarked) [compound 70, (2,3-Dihydro-benzo[1,4]dioxin-6-yl)-carbamic aciddydrogesterone-11-yl ester] | 1.0 | 44.0 | 6.9 | – | – | – | – | –
17 | CSc1ccc(NC(=O)OC2C[C@]3(C)[C@@H](C(C)=O)CC[C@H]3[C@@H]3C=CC4=CC(=O)CC[C@@]4(C)[C@H]23)cc1 (some centres unmarked) [compound 94, (4-Methylsulfanyl-phenyl)-carbamic acid dydrogesterone-11-yl ester] | 1.0 | 61.0 | 7.0 | – | – | – | – | –
18 | CC(=O)[C@H]1CC[C@H]2[C@@H]3C=CC4=CC(=O)CC[C@@]4(C)[C@@H]3C(OC(=O)Nc3ccc4c(c3)S(=O)(=O)C=C4)C[C@]12C (some centres unmarked) [compound 98, (1,1-Dioxo-1H-1lambda*6*-benzo[b]thiophen-6-yl)-carbamicacid dydrogesterone-11-yl ester] | 1.0 | 61.0 | 7.0 | – | – | – | – | –
19 | CC(=O)[C@H]1CC[C@H]2[C@@H]3C=CC4=CC(=O)CC[C@@]4(C)[C@@H]3C(OC(=O)Nc3cccc(N4CCCC4=O)c3)C[C@]12C (some centres unmarked) [compound 100, [3-(2-Oxo-pyrrolidin-1-yl)-phenyl]-carbamic aciddydrogesterone-11-yl ester] | 1.0 | 45.0 | 6.6 | – | – | – | – | –
20 | CC(=O)[C@H]1CC[C@H]2[C@@H]3C=CC4=CC(=O)CC[C@@]4(C)[C@@H]3[C@@H](OC(=O)NC(C)C)C[C@]12C [Compound No. 1, Dydrogesterone-11β-yl isopropylcarbamate] | – | – | – | -3 | 46 | – | – | 0.158
